Data from patent US11260050B2, “Combination of cotinine plus antioxidant for treatment-resistant depression and correction of astrocytes functional deficit induced by depression and other neuropathological” (UNIVERSIDAD SAN SEBASTIAN, priority 2017, dated 2022).

Experiments:
[1] = system: conditioned mice; assay: Fear retention and extinction tests after fear conditioning (Example 4); type: in vivo, Mice C57BL/6
Experimental: (§1) Three-month-old mice (n=5-6/condition) were weighed and assigned to treatment groups. Mice were treated with vehicle or drugs, starting two h after fear conditioning and daily after behavioral testing until euthanasia. Mice received daily treatments with 1. PBS (phosphate buffer saline, pH 7.4) via intranasal; 2. Cotinine (10 mg/ml) dissolved in PBS via intranasal (IN Cot, 24 μl); 3. Krill oil dissolved in PBS, via intranasal (48 mg/ml, 24 μl); 4. Cotinine (10 mg/ml) plus krill oil dissolved in PBS, via intranasal (48 mg/ml, 24 μl); 5.
(§2) For intranasal delivery, mice were hand-restrained, placed in a supine position, and given two 12 μl drops of cotinine solutions, or PBS, into both nares consecutively. Mice were given an extra 12 μl treatment drop if the subject forcibly ejected or sneezed out the solution. Mice were held supine for 5-10 seconds after delivery to ensure that all fluid was inhaled.
Contextual fear conditioning was performed as described. The conditioning chamber used (33 cm×20 cm×22 cm) is surrounded by a sound-attenuating box with a camera connected to freeze frame software (MED Associates Inc.) and equipped to provide a background white noise (72 dB). The conditioning chamber contains in one side a speaker and in the opposite side has a 24V light, and a 36-bar insulated shock grid floor. To perform this test, each mouse was placed in the conditioning chamber for 2 min before the onset of a discrete tone (a sound that will last 30 seconds (sec) at 2,800 Hz and 85 dB). In the last two seconds of this tone, mice received a foot shock of 1 mA, kept in the conditioning chamber for 2 min and returned to their home cages. Between trials, the chamber was sanitized with 70% ethanol and dried. Freezing behavior was defined as the absence of all movement except the one needed for breathing was assessed using the FreezeView Software (MED Associates Inc.).
Fear retention and extinction experiments were performed as described, using the same cohorts of mice and reproduced in two separate experiments. To assess fear retention and mice underwent re-exposure to the conditioning chamber in the absence of an unconditioned stimulus (shock or auditory cues) for 3 minutes (min) in daily extinction trials. Freezing behavior was measured using the ANY-Maze® software (Stoelting CO, USA). The extinction trials were continued until the decrease in freezing behavior reached a stable level.

[2] = system: conditioned mice; assay: Forced swim test after fear conditioning and extinction (Example 4); type: in vivo, Mice C57BL/6; details: FC mice after extinction; Tukey: cotinine p<0.001, combination p<0.005, sertraline p<0.05
Experimental: as §1, §2

CN[C@H]1CC[C@@H](c2ccc(Cl)c(Cl)c2)c2ccccc21.Cl [Sertraline, (1S,4S)-4-(3,4-dichlorophenyl)-1,2,3,4-tetrahydro-N-methyl-1-naphthalenamine hydrochloride, reference compound]
freezing behavior during daily extinction trials (speed of fear extinction) ([1]; 5 days of extinction, daily treatment): overall slower extinction of fear than controls | fear reaction (freezing) in the retention test ([1]; treatment started 2 h after FC, IN cotinine 10 mg/ml, IN KO 48 mg/ml, oral sertraline 3 mg/kg): no significant effects | depressive-like behavior (immobility) in the forced swim test [2]: significantly decreased depressive-like behavior
